Experimental findings from patent US20050113450A1, “Antibacterial agents” (priority 2002, published 2005) are described below.

One may read the MIC as the lowest concentration that inhibits growth of the organism. Lower therefore signals greater potency.

≈ marks a conversion by molar mass, not a printed value.

The test has as its system SA 9218. Description: MIC by standard agar dilution method. As to conditions: Mueller Hinton agar, 10^4 to 10^5 cells per spot, incubated overnight at 35° C., lowest concentration that inhibits visible growth. It is filed as cell-based. The essentials:
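Agar dilution: two-fold compound dilutions mixed into molten Mueller Hinton agar, spots of ~10^4–10^5 cells from 0.5 McFarland suspension diluted 1:20 in TSB. Incubated overnight at 35 °C; MIC is lowest concentration inhibiting visible growth.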
(In general: In agar dilution the substance is mixed into plates at graded concentrations.)
Take `O=C(Nc1ccc(Br)cc1C(=O)O)c1cc(S(=O)(=O)Nc2ccc3c(c2)OCCO3)ccc1Br`: the minimum inhibitory concentration (MIC) came to 0.5 µg/mL (≈ 0.817 µM).
Same read-out and setting: the same measure for `O=C(Nc1ccc(I)cc1C(=O)O)c1ccc(S(=O)(=O)N2CCSC2)cc1`: 32 µg/mL (≈ 61.7 µM); for `CN(C)c1ccc(CNS(=O)(=O)c2ccc(Br)c(C(=O)Nc3ccc(Br)cc3C(=O)O)c2)cc1`: 16 µg/mL (≈ 26.2 µM).
Compound `O=C(Nc1ccc(Cl)cc1C(=O)O)c1cc(Br)cc(S(=O)(=O)N2CCc3ccccc32)c1` [PHA-570949] registered an MIC of 1 µg/mL (≈ 1.87 µM).
On to `COc1ccc(C(=O)Nc2ccc(Cl)cc2C(=O)O)cc1[N+](=O)[O-]` [PNU-291408], for which the “SA 9218 MIC” value was found to be 32 µg/mL.
Turning to `N#Cc1ccc(NC(=O)c2cccc(S(=O)(=O)C3CCCC3)c2)c(C(=O)O)c1` [PHA-630426], the MIC was greater than 128 µg/mL.
The same measure, in the same setting: the result for `O=C(Nc1ccc(Br)cc1C(=O)O)c1ccc(F)cc1` reads 64 µg/mL (≈ 189 µM).
For `N#Cc1ccc(NC(=O)c2ccccc2)c(C(=O)O)c1` [PHA-521535], the “SA 9218 MIC” value is greater than 128 µg/mL.
For `CC(C)N(Cc1ccccc1)S(=O)(=O)c1ccc(C(=O)Nc2ccc(C#N)cc2C(=O)O)cc1` [PHA-571205], the MIC stood at 32 µg/mL (≈ 67 µM).
Same read-out and setting: the result for `O=C(Nc1ccc(Br)cc1C(=O)O)c1cccc(NC(=O)c2ccc([N+](=O)[O-])o2)c1` [PHA-713387] reads 128 µg/mL (≈ 270 µM); that for `CCON=C(c1ccccc1)c1ccc(NC(=O)c2ccc(S(=O)(=O)N3CCc4ccccc43)cc2)c(C(=O)O)c1`, 16 µg/mL (≈ 28.1 µM); that for `CN1C(=O)c2ccc(C(=O)Nc3ccc(Br)cc3C(=O)O)cc2C1=O`, 128 µg/mL (≈ 317 µM).
Same read-out and setting: the same measure for `C=CCN(C1CCCC1)S(=O)(=O)c1ccc(C(=O)Nc2ccc(C#N)cc2C(=O)O)cc1` [PHA-571253]: 16 µg/mL (≈ 35.3 µM).
As for `O=C(Nc1ccc(Br)cc1C(=O)O)c1ccc(NC(=O)c2ccco2)cc1` [PHA-708979], the MIC was greater than 128 µg/mL.
Still for that read-out and setting: the result for `CC(=O)c1ccc(C(=O)Nc2ccc(Br)cc2C(=O)O)cc1` [PHA-520446] reads 16 µg/mL (≈ 44.2 µM).
In turn, `O=C(Nc1ccc(Br)cc1C(=O)O)c1ccc(NS(=O)(=O)c2ccc(Cl)c(Cl)c2)cc1` [PHA-708997] came in with an MIC of 8 µg/mL (≈ 14.7 µM).
